How the values were obtained:
[1] = biological target: T1, 1-phosphatidylinositol 4,5-bisphosphate phosphodiesterase delta-1 (Rattus norvegicus, UniProt P10688); test: Binding affinity to recombinant rat brain PLCdelta1 PH domain (amino acids 11 to 140) by SPR analysis
T1 sequence (P10688 whole entry): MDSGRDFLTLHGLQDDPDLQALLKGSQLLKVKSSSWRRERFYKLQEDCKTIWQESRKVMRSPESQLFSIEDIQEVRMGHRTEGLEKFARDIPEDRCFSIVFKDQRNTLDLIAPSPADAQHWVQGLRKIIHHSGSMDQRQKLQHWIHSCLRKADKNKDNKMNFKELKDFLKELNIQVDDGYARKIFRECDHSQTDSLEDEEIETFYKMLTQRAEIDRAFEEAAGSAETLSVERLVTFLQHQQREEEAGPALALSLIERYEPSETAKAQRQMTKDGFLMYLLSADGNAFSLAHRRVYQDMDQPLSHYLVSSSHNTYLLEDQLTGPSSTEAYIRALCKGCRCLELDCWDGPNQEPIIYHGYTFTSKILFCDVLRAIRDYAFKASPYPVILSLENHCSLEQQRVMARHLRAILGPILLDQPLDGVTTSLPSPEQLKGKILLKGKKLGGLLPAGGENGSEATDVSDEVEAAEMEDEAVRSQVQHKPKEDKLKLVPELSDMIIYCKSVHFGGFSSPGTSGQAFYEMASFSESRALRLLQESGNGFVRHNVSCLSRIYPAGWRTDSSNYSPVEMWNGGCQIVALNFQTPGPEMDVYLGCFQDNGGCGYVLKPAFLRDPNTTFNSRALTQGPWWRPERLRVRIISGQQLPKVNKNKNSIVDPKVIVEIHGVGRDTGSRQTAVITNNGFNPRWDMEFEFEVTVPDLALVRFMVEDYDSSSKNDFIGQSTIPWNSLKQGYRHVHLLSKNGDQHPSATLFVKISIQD

Cytohesin-3 [2] = biological target: T2, Cytohesin-3 (Rattus norvegicus, UniProt P97696); test: Binding affinity to recombinant rat brain Grp1 PH domain (amino acids 1 to 120) by SPR analysis
T2 sequence (P97696 whole entry): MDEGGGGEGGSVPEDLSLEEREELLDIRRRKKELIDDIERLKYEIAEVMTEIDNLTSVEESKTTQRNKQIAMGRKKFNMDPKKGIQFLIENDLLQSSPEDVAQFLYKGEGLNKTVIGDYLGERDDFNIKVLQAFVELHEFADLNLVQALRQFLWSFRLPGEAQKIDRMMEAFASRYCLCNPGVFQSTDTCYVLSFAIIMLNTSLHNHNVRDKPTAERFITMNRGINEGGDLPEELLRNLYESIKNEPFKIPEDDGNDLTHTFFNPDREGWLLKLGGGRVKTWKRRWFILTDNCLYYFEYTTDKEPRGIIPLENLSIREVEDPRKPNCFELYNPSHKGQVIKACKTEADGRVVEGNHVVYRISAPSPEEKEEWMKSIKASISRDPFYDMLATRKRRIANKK

Cytohesin-3 [3] = biological target: T2, Cytohesin-3; test: Binding affinity to recombinant rat brain Grp1 PH domain (amino acids 1 to 120) after 10 mins by pull-down assay
[4] = biological target: T3, 1-phosphatidylinositol 4,5-bisphosphate phosphodiesterase delta-1 (Homo sapiens, UniProt P51178); test: Binding affinity to PLCdelta1 PH domain
T3 sequence (P51178 whole entry): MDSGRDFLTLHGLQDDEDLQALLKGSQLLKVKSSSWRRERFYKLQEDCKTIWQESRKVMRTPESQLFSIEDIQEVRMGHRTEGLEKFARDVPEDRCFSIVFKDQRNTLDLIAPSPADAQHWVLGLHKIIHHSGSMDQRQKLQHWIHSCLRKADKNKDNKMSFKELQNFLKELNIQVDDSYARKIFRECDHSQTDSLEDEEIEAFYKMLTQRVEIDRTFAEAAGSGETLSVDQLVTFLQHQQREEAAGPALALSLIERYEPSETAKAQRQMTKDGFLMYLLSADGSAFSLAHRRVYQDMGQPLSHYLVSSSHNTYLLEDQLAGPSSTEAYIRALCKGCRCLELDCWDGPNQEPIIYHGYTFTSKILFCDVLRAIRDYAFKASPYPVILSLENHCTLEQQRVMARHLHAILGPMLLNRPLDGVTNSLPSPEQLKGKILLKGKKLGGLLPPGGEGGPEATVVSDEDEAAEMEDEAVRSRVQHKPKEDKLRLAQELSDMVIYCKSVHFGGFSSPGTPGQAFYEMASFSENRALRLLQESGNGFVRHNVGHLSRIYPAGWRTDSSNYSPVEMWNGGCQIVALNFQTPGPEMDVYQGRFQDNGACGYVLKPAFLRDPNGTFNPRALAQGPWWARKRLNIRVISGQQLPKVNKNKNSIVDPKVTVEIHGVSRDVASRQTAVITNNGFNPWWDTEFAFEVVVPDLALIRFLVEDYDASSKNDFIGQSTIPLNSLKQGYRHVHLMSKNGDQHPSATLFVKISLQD

Kd [1] [µM] | Kd (Cytohesin-3 [2]) [µM] | Kd (Cytohesin-3 [3]) [µM] | Kd [4] [µM] | SMILES
> 5 | 0.3 | 0.14 | 0.25 | O=C(CCCC[C@@H]1SC[C@@H]2NC(=O)N[C@@H]21)NCCCCCCOP(=O)(O)O[C@H]1[C@H](O)[C@@H](OP(=O)(O)O)[C@H](OP(=O)(O)O)[C@@H](OP(=O)(O)O)[C@H]1O
2.2 | > 1 | – | – | O=C(CCCC[C@@H]1SC[C@@H]2NC(=O)N[C@@H]21)NCCCCCCOP(=O)(O)O[C@@H]1[C@H](O)[C@H](O)[C@@H](OP(=O)(O)O)[C@H](OP(=O)(O)O)[C@H]1O
> 5 | > 1 | – | – | O=C(CCCC[C@@H]1SC[C@@H]2NC(=O)N[C@@H]21)NCCCCCCOP(=O)(O)O[C@@H]1[C@@H](O)[C@H](OP(=O)(O)O)[C@@H](OP(=O)(O)O)[C@H](O)[C@@H]1O
– | – | 0.1 | – | O=P(O)(O)O[C@H]1[C@H](O)[C@@H](OP(=O)(O)O)[C@H](OP(=O)(O)O)[C@@H](OP(=O)(O)O)[C@H]1O
